Source: patent publication US20230165792A1, “LIQUID FORMULATION AND PHARMACEUTICAL PRODUCT CONTAINING CILASTATIN” (Denka Company Limited, priority 2020, published 2023)
Read-outs that look alike come from different tables or passages of the source.

Key:
[1] = for Absorbance: 400 nm; for Cilastatin content: HPLC
Procedure: Then, the glass vial was sealed and heated at 80° C. for 4 hours (to obtain a nitrogen-purged, heated sample). The aqueous solution before heating and the two samples prepared above were measured for absorbance, which served as an index for the degree of coloration, and also analyzed by HPLC to confirm the content of cilastatin.
The analysis conditions are detailed below.
Absorbance Measurement Conditions:
Equipment: Hitachi U-3900
Optical path length: 1 cm
HPLC Analysis Conditions:
Detector: Ultraviolet absorptiometer (measurement wavelength: 216 nm)
Column: 1.7 μm octadecylsilylated silica gel column (Acquity BEH C18, produced by Waters), 2.1 mm I.D., 50 mm long
Column temperature: 40° C.
Mobile phase: 25 mM phosphate buffer containing 9.5% acetonitrile (pH 4.25)
Amount of sample injected: 5 μL (prepared to 100 μg/mL)
Retention time: Cilastatin (about 2.6 min.)

[2] = N2-purged headspace, heated 80° C. for 4 hours

- appearance according to visual observation ([1]; 200 mg/mL aqueous solution): slightly yellow
- pH at the time of preparation ([1]; 200 mg/mL aqueous solution): 6.79
- Absorbance [1, 2]: 0.166
- Cilastatin content [1, 2]: 99.15%
- Absorbance ([1]; before heating, 200 mg/mL aqueous solution, optical path 1 cm): 0.040
- Cilastatin content ([1]; before heating): 98.99%
- Absorbance ([1]; heated sample: sealed glass vial, 80° C. for 4 hours): 0.203
- content of cilastatin (after storage at 45° C.): decreased slightly
- color of solution (after storage at 45° C. for 23 days): yellow
- color of solution (after storage at 45° C. for 65 days): brown
- color of solution (at the time of preparation, deionized water): slightly yellow
SMILES: CC1(C)C[C@@H]1C(=O)N/C(=C\CCCCSC[C@H](N)C(=O)O)C(=O)O [cilastatin sodium, (Z)-7-[[(R)-2-amino-2-carboxyethyl]thio]-2-[[[(S)-2,2-dimethylcyclopropyl]carbonyl]amino]-2-heptenoic acid]
